Measurements reported in PMC10782944 (Science immunology, 2023).

Columns and labels:
10LH = assay: SPR of peptide-loaded HLA-A*24:02 flowed over 10LH-biotin on a streptavidin chip; type: binding; details: peptide loaded on HLA-A*24:02
HLA-B*08:01 = HLA-B*08:01 (Homo sapiens, UniProt P01889, A93T/A95T/D138N/E176V/E187T/K202T/Q94N/R180D/S35A/V36M/Y33D/Y91F); assay: pHLA complex formation of PHOX2B peptide with HLA-B*08:01; details: HLA-B*08:01, despite NetMHCpan 4.1 prediction

LYLPVRVLI [ATG2A]
dissociation rate (qualitative) (10LH): slow dissociation rate

QYNPIRTTF [PHOX2B]
formation of stable complexes with the HLA (HLA-B*08:01): did not form stable complexes
